Data: the NIST ThermoML archive (doi:10.1021/je7000182)

Experiment: xn = mol fraction of the nth substance listed
Details: for mass density: 101 kPa, Liquid

CC(C)=O [acetone] + Cc1ccccc1
Details | mass density [kg/m3] | surface tension liquid-gas [mN/m]
288.15 K, x1 = 0.1 | 866.62 | 28.54
288.15 K, x1 = 0.2 | 861.43 | 27.86
288.15 K, x1 = 0.3 | 855.6 | 27.32
288.15 K, x1 = 0.4 | 849.5 | 26.98
288.15 K, x1 = 0.5 | 842.16 | 26.58
288.15 K, x1 = 0.6 | 834.94 | 25.91
288.15 K, x1 = 0.6999 | 826.67 | 25.22
288.15 K, x1 = 0.8 | 817.43 | 24.68
288.15 K, x1 = 0.9 | 807.56 | 24.24
288.15 K, x1 = 1 | 795.65 | 24.34
293.15 K, x1 = 0.1 | 861.94 | –
293.15 K, x1 = 0.2 | 856.62 | –
293.15 K, x1 = 0.3 | 850.69 | –
293.15 K, x1 = 0.4 | 844.49 | –
293.15 K, x1 = 0.5 | 837.08 | –
293.15 K, x1 = 0.6 | 829.76 | –
293.15 K, x1 = 0.6999 | 821.37 | –
293.15 K, x1 = 0.8 | 812.03 | –
293.15 K, x1 = 0.9 | 802.05 | –
293.15 K, x1 = 1 | 790.04 | –
298.15 K, x1 = 0.1 | 857.19 | 27.42
298.15 K, x1 = 0.2 | 851.77 | 26.78
298.15 K, x1 = 0.3 | 845.76 | 26.27
298.15 K, x1 = 0.4 | 839.43 | 25.87
298.15 K, x1 = 0.5 | 831.96 | 25.26
298.15 K, x1 = 0.6 | 824.52 | 24.69
298.15 K, x1 = 0.6999 | 816.05 | 24.14
298.15 K, x1 = 0.8 | 806.58 | 23.46
298.15 K, x1 = 0.9 | 796.47 | 23.01
298.15 K, x1 = 1 | 784.33 | 23.02
303.15 K, x1 = 0.1 | 852.43 | –
303.15 K, x1 = 0.2 | 846.92 | –
303.15 K, x1 = 0.3 | 840.8 | –
303.15 K, x1 = 0.4 | 834.37 | –
303.15 K, x1 = 0.5 | 826.83 | –
303.15 K, x1 = 0.6 | 819.3 | –
303.15 K, x1 = 0.6999 | 810.71 | –
303.15 K, x1 = 0.8 | 801.09 | –
303.15 K, x1 = 0.9 | 790.88 | –
303.15 K, x1 = 1 | 778.57 | –
308.15 K, x1 = 0.1 | 847.66 | 26.25
308.15 K, x1 = 0.2 | 842.06 | 25.78
308.15 K, x1 = 0.3 | 835.83 | 25.21
308.15 K, x1 = 0.4 | 829.3 | 24.88
308.15 K, x1 = 0.5 | 821.64 | 24.2
308.15 K, x1 = 0.6 | 814 | 23.59
308.15 K, x1 = 0.6999 | 805.29 | 22.92
308.15 K, x1 = 0.8 | 795.56 | 22.51
308.15 K, x1 = 0.9 | 785.21 | 21.83
308.15 K, x1 = 1 | 772.76 | 21.72
313.15 K, x1 = 0.1 | 842.86 | –
313.15 K, x1 = 0.2 | 837.17 | –
313.15 K, x1 = 0.3 | 830.83 | –
313.15 K, x1 = 0.4 | 824.2 | –
313.15 K, x1 = 0.5 | 816.43 | –
313.15 K, x1 = 0.6 | 808.68 | –
313.15 K, x1 = 0.6999 | 799.88 | –
313.15 K, x1 = 0.8 | 790.01 | –
313.15 K, x1 = 0.9 | 779.49 | –
313.15 K, x1 = 1 | 766.91 | –
318.15 K, x1 = 0.1 | 838.04 | 24.97
318.15 K, x1 = 0.2 | 832.23 | 24.75
318.15 K, x1 = 0.3 | 825.82 | 24.09
318.15 K, x1 = 0.4 | 819.06 | 23.74
318.15 K, x1 = 0.5 | 811.19 | 22.82
318.15 K, x1 = 0.6 | 803.32 | 22.67
318.15 K, x1 = 0.6999 | 794.39 | 21.7
318.15 K, x1 = 0.8 | 784.39 | 21.34
318.15 K, x1 = 0.9 | 773.74 | 20.48
318.15 K, x1 = 1 | 760.99 | 20.38
323.15 K, x1 = 0.1 | 833.22 | –
323.15 K, x1 = 0.2 | 827.29 | –
323.15 K, x1 = 0.3 | 820.75 | –
323.15 K, x1 = 0.4 | 813.89 | –
323.15 K, x1 = 0.5 | 805.91 | –
323.15 K, x1 = 0.6 | 797.91 | –
323.15 K, x1 = 0.6999 | 788.88 | –
323.15 K, x1 = 0.8 | 778.74 | –
323.15 K, x1 = 0.9 | 767.94 | –
323.15 K, x1 = 1 | 755.02 | –
328.15 K, x1 = 0.1 | 828.34 | 23.63
328.15 K, x1 = 0.2 | 822.32 | 23.48
328.15 K, x1 = 0.3 | 815.67 | 23.04
328.15 K, x1 = 0.4 | 808.7 | 22.7
328.15 K, x1 = 0.5 | 800.59 | 21.99
328.15 K, x1 = 0.6 | 792.48 | 21.06
328.15 K, x1 = 0.6999 | 783.31 | 20.65
328.15 K, x1 = 0.8 | 773.01 | 19.95
328.15 K, x1 = 0.9 | 762.08 | 19.32
328.15 K, x1 = 1 | 748.98 | 19.15

CC(C)=O [acetone] + O
surface tension liquid-gas [mN/m], Pendant drop shape
Details | 288.15 K | 298.15 K | 308.15 K | 318.15 K | 328.15 K
x1 = 0.0099 | 62.59 | 61.04 | 59.26 | 58.11 | 57.74
x1 = 0.05 | 47.85 | 46.14 | 44.78 | 43.74 | 42.86
x1 = 0.0999 | 40.32 | 39.07 | 37.88 | 36.87 | 35.71
x1 = 0.15 | 35.72 | 34.41 | 33.13 | 32.02 | 30.76
x1 = 0.1999 | 33.71 | 32.21 | 30.74 | 29.4 | 28.31
x1 = 0.2999 | 30.6 | 29.35 | 28.08 | 26.98 | 25.68
x1 = 0.4 | 29.19 | 27.98 | 26.78 | 25.47 | 24.23
x1 = 0.4999 | 28.24 | 27.04 | 25.82 | 24.53 | 23.28
x1 = 0.5999 | 27.29 | 26.03 | 24.81 | 23.63 | 22.26
x1 = 0.6999 | 26.71 | 25.44 | 24.25 | 22.94 | 21.73
x1 = 0.7999 | 25.78 | 24.51 | 23.2 | 22.02 | 20.9
x1 = 0.8999 | 25.06 | 23.8 | 22.56 | 21.19 | 20.19
x1 = 1 | 24.34 | 23.02 | 21.72 | 20.38 | 19.15

mass density [kg/m3]
Details | 288.15 K | 293.15 K | 298.15 K | 303.15 K | 308.15 K | 313.15 K | 318.15 K | 323.15 K | 328.15 K
x1 = 0.0099 | 994.9 | 993.87 | 992.55 | 991 | 989.16 | 987.26 | 985.07 | 982.76 | 980.29
x1 = 0.05 | 981.27 | 979.34 | 977.21 | 974.89 | 972.41 | 969.77 | 966.73 | 963.1 | 959.94
x1 = 0.1 | 965.81 | 962.9 | 959.83 | 956.64 | 953.33 | 949.91 | 946.37 | 942.68 | 938.87
x1 = 0.15 | 950.41 | 946.79 | 943.05 | 939.23 | 935.32 | 931.31 | 927.21 | 923 | 918.72
x1 = 0.2 | 935.61 | 931.54 | 927.37 | 923.1 | 918.78 | 914.37 | 909.89 | 905.19 | 900.64
x1 = 0.3 | 907.7 | 903.09 | 898.35 | 893.54 | 888.68 | 883.75 | 878.76 | 873.7 | 868.56
x1 = 0.4 | 884.77 | 879.81 | 874.8 | 869.68 | 864.53 | 859.33 | 854.06 | 848.74 | 843.31
x1 = 0.5 | 863.71 | 858.56 | 853.35 | 848.07 | 842.72 | 837.31 | 831.85 | 826.32 | 820.73
x1 = 0.6 | 845.83 | 840.53 | 835.15 | 829.71 | 824.22 | 818.66 | 813.05 | 807.35 | 801.6
x1 = 0.7 | 830.7 | 825.3 | 819.8 | 814.25 | 808.63 | 802.96 | 797.22 | 791.42 | 785.55
x1 = 0.8 | 818.04 | 812.56 | 806.97 | 801.32 | 795.62 | 789.84 | 784.05 | 778.16 | 772.2
x1 = 0.9 | 805.86 | 800.27 | 794.6 | 788.88 | 783.11 | 777.29 | 771.4 | 765.46 | 759.81
x1 = 1 | 795.65 | 790.04 | 784.33 | 778.57 | 772.76 | 766.91 | 760.99 | 755.02 | 748.98
